Experimental data reported in ChEMBL document CHEMBL1135007, “Synthesis and pharmacological evaluation of a new class of peroxisome proliferator-activated receptor modulators” (Bioorg Med Chem Lett, 2002).

Experiments:
[1] = target: T1, Peroxisome proliferator-activated receptor alpha (Homo sapiens, UniProt Q07869); assay: Ligand binding affinity was determined by displacement of a tritiated tracer by the unlabeled compound to a GST-PPAR fusion protein for Peroxisome proliferator activated receptor alpha containing residues
T1 sequence (Q07869 whole entry): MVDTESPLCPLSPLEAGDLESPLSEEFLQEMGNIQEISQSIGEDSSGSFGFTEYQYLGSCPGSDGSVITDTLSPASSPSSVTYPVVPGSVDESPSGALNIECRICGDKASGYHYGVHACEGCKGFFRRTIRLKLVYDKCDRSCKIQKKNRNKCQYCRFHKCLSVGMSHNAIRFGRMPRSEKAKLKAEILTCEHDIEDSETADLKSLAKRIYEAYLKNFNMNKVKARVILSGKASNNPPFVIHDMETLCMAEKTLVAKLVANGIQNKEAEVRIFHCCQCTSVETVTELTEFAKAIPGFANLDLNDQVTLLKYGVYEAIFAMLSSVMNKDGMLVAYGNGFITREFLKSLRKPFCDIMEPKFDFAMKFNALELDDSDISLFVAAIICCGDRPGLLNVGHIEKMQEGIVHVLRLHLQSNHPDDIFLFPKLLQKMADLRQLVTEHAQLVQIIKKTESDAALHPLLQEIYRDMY

[2] = target: T1, Peroxisome proliferator-activated receptor alpha; assay: Transactivation potency was measured by luciferase activity in Caco- 2/TC7 cells transiently co-transfected for the fusion-protein Gal4-PPAR alpha; type: functional, cell-based
[3] = target: T2, Peroxisome proliferator-activated receptor gamma (Homo sapiens, UniProt P37231); assay: Transactivation potency was measured by luciferase activity in Caco- 2/TC7 cells transiently co-transfected for the fusion-protein Gal4-PPAR gamma; type: functional, cell-based
T2 sequence (P37231 whole entry): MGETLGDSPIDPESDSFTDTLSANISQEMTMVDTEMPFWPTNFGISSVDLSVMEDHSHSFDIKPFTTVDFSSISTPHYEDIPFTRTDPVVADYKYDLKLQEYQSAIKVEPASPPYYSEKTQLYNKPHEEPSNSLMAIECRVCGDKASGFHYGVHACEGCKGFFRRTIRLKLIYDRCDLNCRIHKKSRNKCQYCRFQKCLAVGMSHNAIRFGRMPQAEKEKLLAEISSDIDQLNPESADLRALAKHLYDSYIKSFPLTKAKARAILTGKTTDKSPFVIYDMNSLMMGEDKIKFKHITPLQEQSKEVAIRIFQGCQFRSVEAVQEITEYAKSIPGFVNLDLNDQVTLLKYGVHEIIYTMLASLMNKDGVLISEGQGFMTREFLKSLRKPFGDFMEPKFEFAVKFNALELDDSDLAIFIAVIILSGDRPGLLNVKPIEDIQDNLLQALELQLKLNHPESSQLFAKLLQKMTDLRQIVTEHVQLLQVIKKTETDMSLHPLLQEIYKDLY

[4] = target: T2, Peroxisome proliferator-activated receptor gamma; assay: Ligand binding affinity was determined by displacement of a tritiated tracer by the unlabeled compound to a GST-PPAR fusion protein for Peroxisome proliferator activated receptor gamma containing residues

Row | Structure (SMILES) | Ki [1] [µM] | EC50 [2] [µM] | EC50 [3] [µM] | Ki [4] [µM]
1 | O=C(Nc1ccc(-c2cccc3cccnc23)cc1C(=O)O)c1ccc(Cl)cc1Cl | > 100 | > 100 | 0.3 | 0.7
2 | Cc1ccc(NC(=O)c2ccc(Cl)cc2Cl)c(C(=O)O)c1 | 30 | 9.5 | 1.6 | 2.2
3 | O=C(Nc1ccc(Oc2cncc(Cl)n2)cc1C(=O)O)c1ccc(Cl)cc1Cl | 21 | > 100 | 0.45 | 0.16
4 | O=C(Nc1ccc(OCCc2ccccn2)cc1C(=O)O)c1ccc(Cl)cc1Cl | > 100 | – | 3.2 | 1.5
5 | O=C(Nc1ccc(OCCc2cccs2)cc1C(=O)O)c1ccc(Cl)cc1Cl | > 100 | > 100 | 0.7 | 1
6 | O=C(Nc1ccc(OCc2cccs2)cc1C(=O)O)c1ccc(Cl)cc1Cl | 25 | 5 | 0.3 | 0.4
7 | CCOc1cccc(-c2ccc(NC(=O)c3ccc(Cl)cc3Cl)c(C(=O)O)c2)c1 | > 100 | > 100 | 0.3 | 1.2
8 | O=C(Nc1ccc(-c2ccco2)cc1C(=O)O)c1ccc(Cl)cc1Cl | 22 | 10 | 1 | 0.5
9 | O=C(Nc1ccc(OCCc2ccsc2)cc1C(=O)O)c1ccc(Cl)cc1Cl | 20 | 3.8 | 0.8 | 0.6
10 | O=C(Nc1ccc(Oc2ccc([N+](=O)[O-])cn2)cc1C(=O)O)c1ccc(Cl)cc1Cl | > 100 | > 100 | 0.4 | 0.18
11 | CCOc1ccc(COc2ccc(NC(=O)c3ccc(Cl)cc3Cl)c(C(=O)O)c2)cc1 | > 100 | > 100 | 0.7 | 3.6
12 | O=C(O)c1cccc(-c2ccc(NC(=O)c3ccc(Cl)cc3Cl)c(C(=O)O)c2)c1 | 67 | > 100 | > 100 | 1.4
13 | CSCCOc1ccc(NC(=O)c2ccc(Cl)cc2Cl)c(C(=O)O)c1 | 19 | 2.5 | 0.6 | 1.6
14 | O=C(Nc1ccc(-c2ccsc2)cc1C(=O)O)c1ccc(Cl)cc1Cl | 28 | 12 | 0.7 | 0.9
15 | O=C(Nc1ccc(Oc2ncccc2[N+](=O)[O-])cc1C(=O)O)c1ccc(Cl)cc1Cl | > 100 | > 100 | 0.4 | 0.17
16 | O=C(Nc1ccc(Oc2ncccn2)cc1C(=O)O)c1ccc(Cl)cc1Cl | > 100 | > 100 | 1.3 | 0.1
